{
  "source": "patent US5264621A",
  "about": "“Anti-virus agent” (Sanyo-Kokusaku Pulp Co., Ltd., priority 1991, dated 1993)",
  "key": {"HIV-1HE": {"system": "HIV-1HE", "experiment": "Inhibitory effect on the destruction of T-cells due to HIV (MTT), HIV-1HE", "format": "cell-based, HIV (human immunodeficiency virus)", "details": "MT-4 cells", "method": "(§1) 1. Inhibitory effect on the destruction of T-cells due to HIV\n(§2) Various concentrations of 3,3'-[1,10-decanediyl-bis(carbonylamino)]-bis(1,5-naphthalenedisulfonc acid) were added to each medium suspended 1×10^5 cells/ml of MT-4 cells, which was infected with HTLV-IIIB or HIV-1HE. Infection was made at an infection number of MOI=0.02. Then, after cultured for 4 days at 37° C., the number of surviving cells was quantitatively determined by dyeing surviving cells with MTT dye. Moreover, at the same time, by dyeing also non-infected cells with MTT dye, the toxicity of sample to cells was calculated."}, "HTLV-IIIB": {"system": "HTLV-IIIB", "experiment": "Inhibitory effect on the destruction of T-cells due to HIV (MTT), HTLV-IIIB", "format": "cell-based, HIV (human immunodeficiency virus)", "details": "MT-4 cells", "method": "as §1, §2"}, "[1]": {"experiment": "Toxicity of sample to non-infected cells (MTT)", "format": "cell-based", "details": "human, mt-4 cells, non-infected MT-4 cells, read-out: CC50 = 50% toxic concentration", "method": "as §2"}, "[2]": {"system": "MOLT-4 cells infected with HTLV-IIIB", "experiment": "Inhibition of the formation of giant cells", "format": "cell-based", "details": "co-culture of HTLV-IIIB infected and non-infected MOLT-4 cells, 24 hours, counted under microscope", "method": "3. Inhibition of the formation of giant cells\nMOLT-4 cells infected with HTLV-IIIB and MOLT-4 cells without infection were cultured each in same number (5×10^4) in medium with 3,3'-[1,10-decanediyl-bis(carbonylamino)]-bis(1,5-naphthalenedisulfonic acid) added and, after cultured for 24 hours, the number of giant cells formed was counted under microscope."}, "bone marrow cells": {"system": "bone marrow cells", "details": "background statement; cited from earlier work"}, "[3]": {"details": "Human immunodeficiency virus 1, MT4, 96 h, MOI=0.02, 4 days at 37° C., MTT, read-out: EC50 = Effective concentration for inhibition of 50% cells"}},
  "note": "Read-outs that look alike come from different tables or passages of the source.",
  "data": [
    {"compound": "O=C(CCCCCCCCCCC(=O)Nc1cc(S(=O)(=O)O)c2cccc(S(=O)(=O)O)c2c1)Nc1cc(S(=O)(=O)O)c2cccc(S(=O)(=O)O)c2c1", "note": "[3,3'-[1,10-decanediyl-bis(carbonylamino)]-bis(1,5-naphthalenedisulfonic acid)]", "values": [
      {"measurement": "EC50", "setting": "HIV-1HE; [3]", "result": 40.7, "unit": "µg/mL"},
      {"measurement": "T.I. = Selective toxicity (CC50 /EC50)", "setting": "HIV-1HE", "result": 12.3},
      {"measurement": "EC50", "setting": "HTLV-IIIB; [3]", "result": 46, "unit": "µg/mL"},
      {"measurement": "T.I. = Selective toxicity (CC50 /EC50)", "setting": "HTLV-IIIB", "result": 8.3},
      {"measurement": "CC50 at 96 h", "setting": "[1]; HIV-1HE system (No. 2)", "result": 500, "unit": "µg/mL"},
      {"measurement": "CC50 at 96 h", "setting": "[1]; HTLV-IIIB system (No. 1)", "result": 383, "unit": "µg/mL"},
      {"measurement": "inhibitory activity against formation of giant cells", "setting": "[2]", "result": "recognized"}
    ]},
    {"compound": "Cc1cn([C@H]2C[C@H](N=[N+]=[N-])[C@@H](CO)O2)c(=O)[nH]c1=O", "note": "[AZT, azido thymidine]", "values": [
      {"measurement": "side effects", "setting": "bone marrow cells", "result": "inhibition of the growth of bone marrow cells"}
    ]}
  ]
}
